Each structure is given as a SMILES string. The source made the active and inactive calls. No rule for the calls is given here.

For this test, the target named is TEM-1 beta-lactamase (Escherichia coli) (UniProt Q932Y6). In words: TEM-1 beta-lactamase inhibitor potency, late-stage follow-up, counter-screen for dual metallo-beta-lactamase inhibitor project, biochemical, epi-absorbance, IC50 (AID 2767). Conditions: nitrocefin absorbance. (Counterscreens check selectivity or assay interference.)
Chain of TEM-1 beta-lactamase (Escherichia coli) (Q932Y6 1-286): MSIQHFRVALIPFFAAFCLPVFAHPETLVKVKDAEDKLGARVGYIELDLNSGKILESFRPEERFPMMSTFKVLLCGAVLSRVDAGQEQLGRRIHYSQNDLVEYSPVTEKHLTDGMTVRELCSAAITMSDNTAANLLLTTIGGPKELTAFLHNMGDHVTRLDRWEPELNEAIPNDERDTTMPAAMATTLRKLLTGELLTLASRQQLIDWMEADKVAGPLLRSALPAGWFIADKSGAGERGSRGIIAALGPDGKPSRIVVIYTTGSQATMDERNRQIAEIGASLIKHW
For orientation: IC50 means the concentration needed to halve the response being measured. Take `O=C(O)c1ccc[c]([Hg+])c1`: the IC50 is > 59.6 µM (inactive). Take `COc1cccc[c]1[Hg+]`: the IC50 is > 59.6 µM (inactive). With `CC(=O)Nc1cc[c]([Hg+])cc1`, the IC50 was > 59.6 µM (inactive). With `O=C(O)c1cc[c]([Hg][Cl])cc1`, the IC50 was > 59.6 µM (inactive). On to `[Hg+][c]1ccccc1`, for which the IC50 is > 59.6 µM (inactive). Take `Cc1cc[c]([Hg+])cc1`: the IC50 is > 59.6 µM (inactive).
